Source: US20130189690A1, “SCN5A Splice Variants for Use in Methods Relating to Sudden Cardiac Death and Need for Implanted Cardiac Defibrillators” (The United States Government as represented by the …, priority 2011, published 2013)

Assays:
[1] = system: NF-κB subunits p50 and p65 on the scn5a promoter; experiment: Chromatin immunoprecipitation (ChIP) assay in H9c2 cells; format: cell-based, rat
Experimental: Formaldehyde cross-linking and chromatin immunoprecipitation was performed as described in manufactory's manual (ChIP-IT™ kit, Activemotif). Briefly, proteins were crosslinked with chromatin using 1% formaldehyde in H9c2 cells with or without treatment. The cells were subsequently sonicated in lysis buffer, and an aliquot of the lysate was used in a PCR reaction. The remaining lysate was cleared with protein G beads. One half of the cleared lysate was incubated with p50 or p65 antibody, while the other half was used as a negative control without the antibody. After reversing the cross-linking, the immuno-complex was digested with proteinase K, and the DNA was purified. DNA was analyzed by PCR with the PicoMax Polymerase (Stratagene, La Jolla, Calif.) and primers specific to the APS3 promoter region.

[2] = system: NF-κB binding to the scn5a promoter; experiment: Electrophoretic mobility shift assay with H9c2 nuclear extracts; format: cell-based, rat; details: for effect of NF-κB inhibitor on NF-κB binding to scn5a promoter probe: CAPE 10 μM, H9c2, H2O2
Text: Approximately 5×10^6 cells were scraped for nuclear protein extraction by nuclear extract kit (Activemotif, Carlsbad, Calif.). A double-stranded oligonucleotide containing the consensus-binding sequence (bold) for […] ID NO. 657)) and NF-κB mutant sequence ([NT] ID NO. 658)) from scn5a promoter were used as probes to assay for binding activity of the nuclear extracts. Protein-DNA complexes were detected using biotin end-labeled double-stranded DNA probes prepared by annealing complementary oligonucleotides. Oligonucleotides were labeled in a reaction using terminal deoxynucleotide transferase and biotin-N4-CTP (Pierce, Rockford, Ill.) following the biotin 3' end DNA labeling kit manual. The binding reaction was performed using the LightShift kit (Pierce). […] Following electrophoresis, the DNA-protein complexes were transferred onto nylon membranes and detected using chemiluminescence. TNF-α activated H9c2 cell nuclear extract (5 μg) was used as positive control. The reaction products were separated on a 6% retardation gel.

H9c2 cardiomyocytes = experiment: Trypan-blue exclusion cell viability assay; format: cell-based
Experimental: To determine appropriate concentrations of these agents in future experiments, rat H9c2 cardiomyocytes were treated with escalating concentrations of AngII and H2O2, and the dose-dependent cell viability was determined. H9c2 cardiomyocytes were tolerant of a wide range of AngII concentrations from 1-500 nM in serum free medium (FIG. 14A). On the other hand, higher doses of H2O2 induced cell death starting at concentrations of 50 μM (FIG. 14B). […] Exposures of 48 h were used to allow sufficient time for transcriptional effects on the Na^+ current.
The rat embryonic cardiomyocyte cell line, H9c2 (ATCC cat #CRL-1446), or acutely isolated neonatal rat heart cardiomyocytes were used. Rat neonatal ventricular cells were isolated from 3-day-old Sprague-Dawley rats (Charles River Laboratories Wilmington, Mass.) using a kit and following the manufacturer's instructions (Worthington Biochemical Corp. Lakewood, N.J.). Cells cultured in Dulbecco's modified Eagle's medium (DMEM; ATCC, Manassas, Va.) with 10% fetal calf serum (ATCC) under standard tissue culture conditions at 37° C. to 70-80% confluence were exposed to AngII (Sigma, St. Louis, Mo.) or H2O2 (Sigma) in serum free culture medium (SFM) for a total of 48 h in triplicate in 24 well plates. Experiments were repeated three times. […]

[3] = system: cardiac sodium channel (scn5a) mRNA; experiment: scn5a mRNA abundance by quantitative real-time RT-PCR in H9c2 cells; format: cell-based, rat
Text: (§1) The rat embryonic cardiomyocyte cell line, H9c2 (ATCC cat #CRL-1446), or acutely isolated neonatal rat heart cardiomyocytes were used. Rat neonatal ventricular cells were isolated from 3-day-old Sprague-Dawley rats (Charles River Laboratories Wilmington, Mass.) using a kit and following the manufacturer's instructions (Worthington Biochemical Corp. Lakewood, N.J.). Cells cultured in Dulbecco's modified Eagle's medium (DMEM; ATCC, Manassas, Va.) with 10% fetal calf serum (ATCC) under standard tissue culture conditions at 37° C. to 70-80% confluence were exposed to AngII (Sigma, St. Louis, Mo.) or H2O2 (Sigma) in serum free culture medium (SFM) for a total of 48 h in triplicate in 24 well plates. Experiments were repeated three times. After dissociation with 0.125% trypsin-EDTA, 20 μL of 0.4% Trypan-blue (Sigma, St. Louis, Mo.) was added to each well, and a Trypan-blue exclusion viability assay was performed. The use of rats conforms with the Guide for the Care and Use of Laboratory Animals published by the US National Institutes of Health (NIH Publication No. 85-23, revised 1996).
(§2) To determine the abundance of cardiac sodium channel (scn5a) mRNA under the various conditions, quantitative real-time RT-PCR was used. […] PCR products were analyzed by relative standard curve methods β-Actin was used as a reference when making quantitative comparison.

[4] = system: cardiac Na+ channel current; experiment: Whole-cell patch-clamp Na+ current in H9c2 cells; format: cell-based, rat; details: H9c2, 20 μM H2O2 for 48 h, voltage step to −10 mV
Experimental: Three hours prior to the start of the patch-clamp experiments, H9c2 cells were trypsinized and plated on treated plastic coverslips. H9c2 cells were treated with or without H2O2 as indicated. Glass pipettes were pulled on a Sutter Model P-97 horizontal puller to a resistance of 0.5 to 1.5 MΩ. The glass pipettes were filled with a solution of (in mM) CsCl 60, Cesium Aspartate 80, EGTA sodium 11, HEPES 10, Na2ATP 5 and pH 7.2 with CsOH. The bath solution consisted of (in mM) Na 30, […] chloride 100, CsCl 5, CaCl2 2, MgCl2 1.2, HEPES 10, Glucose 5 and pH 7.4 with NaOH. Once a seal was established, a small amount of suction was applied to obtain the whole cell configuration. From a holding potential of −100 mV, peak currents obtained at −10 mV were used for comparison. Cells were tested at 25° C. Data were sampled at 10 kHz and later filtered at 5 kHz for analysis. Currents were recorded and analyzed with an Axopatch 200B amplifier, Axon Digidata 1230A A/D converter and pClamp software (Molecular Devices Corporation, Sunnyvale, Calif.).

scn5a promoter = experiment: scn5a promoter-reporter (dual luciferase) assay in H9c2 cells; format: cell-based, rat
Experimental: The scn5a promoter region has previously been defined (Shang, L. L. & Dudley, S. C., Jr. (2005) J. Biol. Chem. 280, 933-940). For these experiments, a new promoter construct that contained the NF-κB consensus binding site was used to test the effect of treatments on scn5a transcription. This construct, pGL3-APS3, consisted of a 937 bp fragment starting from exon 1C to +32 base pairs relative to the start codon located on exon 2 of mouse scn5a gene.
H9c2 cardiomyocytes were plated in each well of 24-well plates at a density of 2.5×10^4 cells in a final volume of 1 mL of culture medium, allowed to attach overnight, and expand to 70%-80% confluence. Transfection of 0.3 μg of the promoter-reporter construct and 0.013 μg of a plasmid containing the herpes simplex virus thymidine kinase (HSV-TK) promoter driving expression of a synthetic Renilla luciferase (phRL-TK; Promega, Madison, […].) was carried out with 0.9 μL of Fugene6 chemical transfection reagents (Roche, Indianapolis, Ind.) following the manufacturer's instructions. […] Light emission was quantified in a Veritas microplate luminometer using Veritas-version 1.4.0 software (Tuener Biosystems, Sunnyvale, Calif.). […] Four separate transfection sessions were analyzed, and at each session, transfections were performed in triplicate. Three dual luciferase readings were taken for each transfection experiment. […]

[5] = system: cardiac sodium channel (scn5a) mRNA; experiment: scn5a mRNA abundance by quantitative real-time RT-PCR in neonatal cardiomyocytes; format: cell-based, rat
Text: as §1, §2

O=C(/C=C/c1ccc(O)c(O)c1)OCCc1ccccc1 [CAPE, caffeic acid phenethyl ester]
effect of NF-κB inhibitor on binding of p50 and p65 to the channel promoter ([1]; H9c2, CAPE): could prevent biding of both subunits | effect of NF-κB inhibitor on NF-κB binding to scn5a promoter probe [2]: prevented binding in response to H2O2 | effect of NF-κB inhibitor on NF-κB binding to scn5a promoter probe ([2]; listed as caffeic acid phenethyl ester): blocked

OO [H2O2]
NF-κB subunit binding on the cardiac Na+ channel promoter ([1]; H9c2, AngII or H2O2 treatment): formation of the complete p50-p65 NF-κB heterodimer | cell death at 20 μM H2O2 (H9c2 cardiomyocytes; 20 μM H2O2, 48 h): no statistically significant increase in cell death | H2O2 concentration at which cell death starts (H9c2 cardiomyocytes; 48 h): ≥ 50 µM | reduction in Na+ channel mRNA ([3]; H9c2 cells, 20 μmol/L H2O2, 48 h): 46.9% | NF-κB binding activity to scn5a promoter probe ([2]; H9c2 nuclear extracts, 48 h AngII or H2O2): increased | decrease in peak Na+ current [4]: 46% | change in promoter activity of construct with mutated NF-κB binding site (scn5a promoter; APS3-NF-κBm, H9c2, AngII or H2O2): no significant change in activity | depression of scn5a Na+ channel promoter activity (scn5a promoter; APS3 construct with intact NF-κB site, H9c2, 20 μM H2O2, 48 h): 42.3% | reduction in Na+ channel mRNA ([5]; isolated neonatal rat myocytes, 40 nM H2O2, 48 h): 45.4%

catalase
effect of catalase on AngII-mediated downregulation of Na+ channel mRNA ([3]; H9c2, AngII 100 nM and PEG-catalase 250 U/mL, 48 h): prevented | effect of catalase on AngII-mediated downregulation of Na+ channel mRNA ([5]; neonatal cardiomyocytes, AngII 2 nM and PEG-catalase 250 U/mL, 48 h): prevented
